Publication PMC6333288, “The crystal structure of the N-acetylglucosamine 2-epimerase from Nostoc sp. KVJ10 reveals the true dimer” (Acta Crystallographica. Section D, Structural Biology, 2019)

What was measured:
nAGE10 = target: T1, nAGE10 (Nostoc sp. KVJ10, UniProt A0A452CSU8); assay: coupled AGE/NAL (AsNAL) reaction, Neu5Ac by thiobarbituric acid assay; format: biochemical; details: HEPES pH 8.0, 25 °C, 1 h
T1 construct: synthetic codon-optimised gene, C-terminal hexahistidine tag (no cleavage described), expressed in E. coli BL21 Star (DE3); dimer by gel filtration; residues Tyr3-Leu391 resolved, 157-164 missing

[1] = target: N-acetylglucosamine 2-epimerase from Nostoc sp. KVJ10 (Nostoc sp. KVJ10); assay: SEC; gel-filtration chromatography on a Superdex 75 10/300 GL column; oligomerization state of purified nAGE10

T1 sequence (A0A452CSU8 entry or part of it): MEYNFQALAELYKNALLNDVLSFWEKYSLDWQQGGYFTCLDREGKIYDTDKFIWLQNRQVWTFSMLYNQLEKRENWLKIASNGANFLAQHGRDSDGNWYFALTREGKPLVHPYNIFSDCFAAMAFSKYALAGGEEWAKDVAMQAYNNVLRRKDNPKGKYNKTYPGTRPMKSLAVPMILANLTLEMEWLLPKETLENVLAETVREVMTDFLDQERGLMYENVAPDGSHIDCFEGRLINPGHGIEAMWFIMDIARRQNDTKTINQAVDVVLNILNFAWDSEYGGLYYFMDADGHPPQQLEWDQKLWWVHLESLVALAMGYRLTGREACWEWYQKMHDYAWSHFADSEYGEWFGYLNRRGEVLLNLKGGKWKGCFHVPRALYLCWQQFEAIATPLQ

Nc1ncnc2c1ncn2[C@@H]1O[C@H](COP(=O)(O)OP(=O)(O)OP(=O)(O)O)[C@@H](O)[C@H]1O [ATP]
coupled AGE/NAL (AsNAL) reaction, Neu5Ac by thiobarbituric acid assay (nAGE10; 10 mM ATP present versus absent, GlcNAc 15 mM, pyruvate 15 mM, allosteric activator): In the absence of ATP, only a fraction of Neu5Ac could be synthetized from GlcNAc

N-acetylglucosamine 2-epimerase from Nostoc sp. KVJ10 (enzyme)
stoichiometry N [1]: 2

CC(=O)N[C@H]1C(O)O[C@H](CO)[C@@H](O)[C@@H]1O (stereo partly drawn) [GlcNAc]
coupled AGE/NAL (AsNAL) reaction, Neu5Ac by thiobarbituric acid assay (nAGE10; 15 mM GlcNAc, 10 mM ATP, 15 mM pyruvate): The results show that the synthesis of Neu5Ac from GlcNAc is possible
